The source of these data is patent US20230167118A1, “DEGRADATION OF BRUTON'S TYROSINE KINASE (BTK) BY CONJUGATION OF BTK INIDBITORS WITH E3 LIGASE LIGAND AND METHODS OF USE” (BEIGENE, LTD., priority 2020, published 2023).

SMILES strings stand for the structures. pIC50: −log10 of the molar value. Some results are limits rather than exact numbers.

As usually defined, the DC50 is the concentration giving 50% degradation. One may read the pIC50 as the negative decadic logarithm of the IC50, by convention in mol/L. A high value points to a low IC50.

In one experiment the target is T1, BTK (Homo sapiens, UniProt Q06187).
T1 construct: High control=Cell group with added DMSO and without compound, indicating microplate readings without BTK degradation; endogenous in cells; host or cells: TMD-8 cells
Kind of experiment: Cell Degradation: BTK degradation in TMD-8 cells, HTRF assay. In kind it is cell-based. Conditions: 6 h treatment, IC50 (DC50) of BTK degradation. An outline of the steps:
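TMD-8 cells treated 6 h with 8-dose 6-fold dilutions in 0.2% DMSO, then lysed and BTK quantified by HTRF (665/620 nm). Degradation % normalised to high/low controls; DC50 from four-parameter fit, Dmax as maximal degradation.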
Background: Time-resolved FRET reads energy transfer from a long-lived donor to a nearby acceptor.

The test system of the next experiment is HEK-293 cells. Description: HEK-293 Cytotoxicity Assay (CellTiter-Glo). The conditions noted are these: Homo sapiens, HEK293, 72 h incubation, CellTiter-Glo luminescence. In kind it is cell-based. In a few lines: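 HEK-293 cells treated 72 h with 8 concentrations (4-fold dilutions, 0.2% DMSO final). Viability read by CellTiter-Glo luminescence; IC50 from four-parameter logistic fit of % inhibition.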
(Cellular ATP, detected with luciferase, serves as a proxy for viable cell number.)

T1 sequence (Q06187 whole entry): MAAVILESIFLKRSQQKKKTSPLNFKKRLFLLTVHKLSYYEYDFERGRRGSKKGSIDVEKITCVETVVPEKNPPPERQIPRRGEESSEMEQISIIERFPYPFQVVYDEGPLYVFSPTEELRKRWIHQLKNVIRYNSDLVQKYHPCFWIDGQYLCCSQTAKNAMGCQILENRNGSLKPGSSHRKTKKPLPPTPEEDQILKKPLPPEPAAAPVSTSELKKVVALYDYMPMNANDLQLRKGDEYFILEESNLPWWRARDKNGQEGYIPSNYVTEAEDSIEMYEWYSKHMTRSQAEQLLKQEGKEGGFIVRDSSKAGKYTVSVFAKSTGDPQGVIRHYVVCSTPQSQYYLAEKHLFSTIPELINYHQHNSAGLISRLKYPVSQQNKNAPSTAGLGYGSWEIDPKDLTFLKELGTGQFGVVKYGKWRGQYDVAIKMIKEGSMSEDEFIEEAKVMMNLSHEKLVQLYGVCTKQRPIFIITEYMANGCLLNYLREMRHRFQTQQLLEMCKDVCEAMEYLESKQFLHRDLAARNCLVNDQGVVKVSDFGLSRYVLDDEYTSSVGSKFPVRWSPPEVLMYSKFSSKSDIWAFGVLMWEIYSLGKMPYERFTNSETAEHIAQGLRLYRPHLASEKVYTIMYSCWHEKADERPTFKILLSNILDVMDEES

`Cc1cc(-c2ncnc3[nH]c(-c4ccc(N5CCN(CC6CCN(c7ccc(N8CCC(=O)NC8=O)cc7)CC6)CC5)cc4)nc23)ccc1[C@@H](C)NC(=O)c1noc(C(C)(C)C)n1` [Example 68, (R)-5-(tert-butyl)-N-(1-(4-(8-(4-(4-((1-(4-(2,4-dioxotetrahydropyrimidin-1(2H)-yl)phenyl)piperidin-4-yl)methyl)piperazin-1-yl)phenyl)-9H-purin-6-yl)-2-methylphenyl)ethyl)-1,2,4-oxadiazole-3-carboxamide] came in with a DC50 on BTK of 1.08 nM. In addition, in the experiment on HEK-293 cells, the pIC50 is < 5.00.

At BTK, `Cc1cc(-c2ncnc3[nH]c(-c4ccc(N5CCN(CC6CCN(c7ccc(N8CCC(=O)NC8=O)c(C)c7)CC6)CC5)nc4)nc23)ccc1[C@@H](C)NC(=O)c1noc(C(C)(C)C)n1` [Example 71, (R)-5-(tert-butyl)-N-(1-(4-(8-(6-(4-((1-(4-(2,4-dioxotetrahydropyrimidin-1(2H)-yl)-3-methylphenyl)piperidin-4-yl)methyl)piperazin-1-yl)pyridin-3-yl)-9H-purin-6-yl)-2-methylphenyl)ethyl)-1,2,4-oxadiazole-3-carboxamide] displayed a 50% degradation concentration (DC50) of 0.21 nM. In addition, in the experiment on HEK-293 cells, the pIC50 is < 5.00.

`Cc1cc(-c2ncnc3[nH]c(-c4ccc(N5CCN(CC6CCN(c7ccc(N8CCC(=O)NC8=O)c(C)c7)CC6)CC5)cc4)nc23)ccc1[C@@H](C)NC(=O)c1noc(C(C)(C)C)n1` [Example 73, (R)-5-(tert-butyl)-N-(1-(4-(8-(4-(4-((1-(4-(2,4-dioxotetrahydropyrimidin-1(2H)-yl)-3-methylphenyl)piperidin-4-yl)methyl)piperazin-1-yl)phenyl)-9H-purin-6-yl)-2-methylphenyl)ethyl)-1,2,4-oxadiazole-3-carboxamide] showed a half-maximal degradation concentration (DC50) at BTK of 1.1 nM. The pIC50 in the experiment on HEK-293 cells was < 5.00.

The compound `C[C@@H](NC(=O)c1nc(C(C)(C)C)no1)c1ccc(-c2ncnc3[nH]c(-c4ccc(N5CCN(CC6CCN(c7ccc(N8CCC(=O)NC8=O)cc7)CC6)CC5)cc4)cc23)cc1CO` [Example 74] showed a half-maximal degradation concentration (DC50) on BTK of 0.4 nM. In addition, in the experiment with HEK-293 cells, the negative-log IC50 (pIC50) is < 5.00.

`Cc1c([C@@H](C)NC(=O)c2nc(C(C)(C)C)no2)ccc(-c2ncnc3[nH]c(-c4ccc(N5CCN(CC6CCN(c7ccc(N8CCC(=O)NC8=O)cc7)CC6)CC5)cc4)cc23)c1F` [Example 78, (R)-3-(tert-butyl)-N-(1-(4-(6-(4-(4-((1-(4-(2,4-dioxotetrahydropyrimidin-1(2H)-yl)phenyl)piperidin-4-yl)methyl)piperazin-1-yl)phenyl)-7H-pyrrolo[2,3-d]pyrimidin-4-yl)-3-fluoro-2-methylphenyl)ethyl)-1,2,4-oxadiazole-5-carboxamide] came in with a half-maximal degradation concentration (DC50) on BTK of 0.88 nM. In the experiment with HEK-293 cells, the pIC50 was < 5.00.

The compound `Cc1cc(-c2ncnc3[nH]c(-c4ccc(N5CCN(CC6CCN(c7ccc(N8CCC(=O)NC8=O)cc7)CC6)CC5)cc4)cc23)c(F)cc1[C@@H](C)NC(=O)c1nc(C(C)(C)C)no1` [Example 79, (R)-3-(tert-butyl)-N-(1-(4-(6-(4-(4-((1-(4-(2,4-dioxotetrahydropyrimidin-1(2H)-yl)phenyl)piperidin-4-yl)methyl)piperazin-1-yl)phenyl)-7H-pyrrolo[2,3-d]pyrimidin-4-yl)-5-fluoro-2-methylphenyl)ethyl)-1,2,4-oxadiazole-5-carboxamide] gave a DC50 at BTK of 1.5 nM. Besides, the pIC50 in the experiment on HEK-293 cells was < 5.00.

Compound `C[C@@H](NC(=O)c1nc(C(C)(C)C)no1)c1ccc(-c2ncnc3[nH]c(-c4ccc(N5CCN(CC6CCN(c7ccc(N8CCC(=O)NC8=O)cc7)CC6)C[C@@H]5C)nc4)cc23)cc1F` [Example 80, 3-(tert-butyl)-N-((R)-1-(4-(6-(6-((S)-4-((1-(4-(2,4-dioxotetrahydropyrimidin-1(2H)-yl)phenyl)piperidin-4-yl)methyl)-2-methylpiperazin-1-yl)pyridin-3-yl)-7H-pyrrolo[2,3-d]pyrimidin-4-yl)-2-fluorophenyl)ethyl)-1,2,4-oxadiazole-5-carboxamide] displayed a 50% degradation concentration (DC50) at BTK of 4.3 nM. In the experiment with HEK-293 cells, the pIC50 was < 5.00.

For `Cc1cc(-c2ncnc3[nH]c(-c4ccc(N5CCN(CC6CCN(c7ccc(N8CCC(=O)NC8=O)cc7)CC6)CC5)cc4)cc23)ccc1[C@@H](C)NC(=O)c1noc(C2(C)CC2)n1` [Example 90, (R)-N-(1-(4-(6-(4-(4-((1-(4-(2,4-dioxotetrahydropyrimidin-1(2H)-yl)phenyl)piperidin-4-yl)methyl)piperazin-1-yl)phenyl)-7H-pyrrolo[2,3-d]pyrimidin-4-yl)-2-methylphenyl)ethyl)-5-(1-methylcyclopropyl)-1,2,4-oxadiazole-3-carboxamide], on BTK, it took 1.5 nM to reach half-maximal degradation (DC50). In the experiment on HEK-293 cells, the negative logarithm of the IC50 (pIC50) was < 5.00.

At BTK, `Cc1cc(-c2ncnc3[nH]c(-c4ccc(N5CCN(CC6CCN(c7ccc(N8CCC(=O)NC8=O)cc7)CC6)CC5)nc4)cc23)ccc1[C@@H](C)NC(=O)c1noc(C(C)(C)C)n1` [Example 104, (R)-5-(tert-butyl)-N-(1-(4-(6-(6-(4-((1-(4-(2,4-dioxotetrahydropyrimidin-1(2H)-yl)phenyl)piperidin-4-yl)methyl)piperazin-1-yl)pyridin-3-yl)-7H-pyrrolo[2,3-d]pyrimidin-4-yl)-2-methylphenyl)ethyl)-1,2,4-oxadiazole-3-carboxamide] displayed a DC50 of 0.6 nM. Besides, the pIC50 with HEK-293 cells is < 5.00.

Regarding `Cc1cc(-c2ncnc3[nH]c(-c4ccc(N5CCN(CC6CCN(c7ccc(N8CCC(=O)NC8=O)cc7)CC6)C[C@H]5C)nc4)cc23)ccc1[C@@H](C)NC(=O)c1nc(C(C)(C)C)no1` [Example 105, 3-(tert-butyl)-N-((R)-1-(4-(6-(6-((R)-4-((1-(4-(2,4-dioxotetrahydropyrimidin-1(2H)-yl)phenyl)piperidin-4-yl)methyl)-2-methylpiperazin-1-yl)pyridin-3-yl)-7H-pyrrolo[2,3-d]pyrimidin-4-yl)-2-methylphenyl)ethyl)-1,2,4-oxadiazole-5-carboxamide], it took 3 nM to reach half-maximal degradation at BTK (DC50). Also, the pIC50 in the experiment with HEK-293 cells is < 5.00.

`Cc1cc(-c2ncnc3[nH]c(-c4ccc(N5CCN(CC6CCN(c7ccc(N8CCC(=O)NC8=O)cc7)CC6)C[C@@H]5C)nc4)cc23)ccc1[C@@H](C)NC(=O)c1nc(C(C)(C)C)no1` [Example 106, 3-(tert-butyl)-N-((R)-1-(4-(6-(6-((S)-4-((1-(4-(2,4-dioxotetrahydropyrimidin-1(2H)-yl)phenyl)piperidin-4-yl)methyl)-2-methylpiperazin-1-yl)pyridin-3-yl)-7H-pyrrolo[2,3-d]pyrimidin-4-yl)-2-methylphenyl)ethyl)-1,2,4-oxadiazole-5-carboxamide] came in with a DC50 on BTK of 4.6 nM. Moreover, the pIC50 in the experiment with HEK-293 cells was < 5.00.

Consider `Cc1cc(-c2ncnc3[nH]c(-c4ccc(N5CCN(CC6CCN(c7ccc(N8CCC(=O)NC8=O)cc7)CC6)CC5)cc4)cc23)c(F)cc1[C@@H](C)NC(=O)c1noc(C(C)(C)C)n1` [Example 107, (R)-5-(tert-butyl)-N-(1-(4-(6-(4-(4-((1-(4-(2,4-dioxotetrahydropyrimidin-1(2H)-yl)phenyl)piperidin-4-yl)methyl)piperazin-1-yl)phenyl)-7H-pyrrolo[2,3-d]pyrimidin-4-yl)-5-fluoro-2-methylphenyl)ethyl)-1 2,4-oxadiazole-3-carboxamide], for which the DC50 on BTK is 1.7 nM. For the same compound, the negative-log IC50 (pIC50) with HEK-293 cells was < 5.00.

As for `C[C@@H](NC(=O)c1noc(C(C)(C)C)n1)c1ccc(-c2ncnc3[nH]c(-c4ccc(N5CCN(CC6CCN(c7ccc(N8CCC(=O)NC8=O)cc7)CC6)CC5)cn4)cc23)cc1F` [Example 108, (R)-5-(tert-butyl)-N-(1-(4-(6-(5-(4-((1-(4-(2,4-dioxotetrahydropyrimidin-1(2H)-yl)phenyl)piperidin-4-yl)methyl)piperazin-1-yl)pyridin-2-yl)-7H-pyrrolo[2,3-d]pyrimidin-4-yl)-2-fluorophenyl)ethyl)-1,2,4-oxadiazole-3-carboxamide], on BTK, half-maximal degradation (DC50) was put at 0.35 nM. Besides, the negative logarithm of the IC50 (pIC50) in the experiment on HEK-293 cells is < 5.00.

The compound `CC(C)(C)c1noc(C(=O)NCc2ccc(-c3ncnc4[nH]c(-c5ccc(N6CCN(CC7CCN(c8ccc(N9CCC(=O)NC9=O)cc8)CC7)CC6)cc5)cc34)cc2CO)n1` [Example 109, 3-(tert-butyl)-N-(4-(6-(4-(4-((1-(4-(2,4-dioxotetrahydropyrimidin-1(2H)-yl)phenyl)piperidin-4-yl)methyl)piperazin-1-yl)phenyl)-7H-pyrrolo[2,3-d]pyrimidin-4-yl)-2-(hydroxymethyl)benzyl)-1,2,4-oxadiazole-5-carboxamide] showed a DC50 at BTK of 0.72 nM. The pIC50 in the experiment on HEK-293 cells was < 5.00.

Consider `Cc1cc(-c2ncnc3[nH]c(-c4ccc(N5CCN(CC6CCN(c7ccc(N8CCC(=O)N(C)C8=O)cc7)CC6)CC5)cn4)cc23)ccc1[C@@H](C)NC(=O)c1nc(C(C)(C)C)no1` [Example 110, (R)-3-(tert-butyl)-N-(1-(2-methyl-4-(6-(5-(4-((1-(4-(3-methyl-2,4-dioxotetrahydropyrimidin-1(2H)-yl)phenyl)piperidin-4-yl)methyl)piperazin-1-yl)pyridin-2-yl)-7H-pyrrolo[2,3-d]pyrimidin-4-yl)phenyl)ethyl)-1,2,4-oxadiazole-5-carboxamide], for which, at BTK, the DC50 is > 2000 nM. For the same compound, in the experiment with HEK-293 cells, the pIC50 was < 5.00.

In the case of `Cc1cc(-c2ncnc3[nH]c(-c4ccc(N5CCN(CC6CCN(c7ccc(N8CCC(=O)NC8=O)c(F)c7)CC6)CC5)cc4)cc23)ccc1[C@@H](C)NC(=O)c1nc(C(C)(C)C)no1` [Example 111, (R)-3-(tert-butyl)-N-(1-(4-(6-(4-(4-((1-(4-(2,4-dioxotetrahydropyrimidin-1(2H)-yl)-3-fluorophenyl)piperidin-4-yl)methyl)piperazin-1-yl)phenyl)-7H-pyrrolo[2,3-d]pyrimidin-4-yl)-2-methylpheyl)ethyl)-1,2,4-oxadiazole-5-carboxamide], half-maximal degradation on BTK (DC50) was put at 2.3 nM. Besides, in the experiment with HEK-293 cells, the pIC50 is < 5.00.
